# From article PMC6278073 (BMC Pharmacology & Toxicology, 2018)
# Legend:
# in vivo [1] = experiment: in vivo
# Protocol: (§1) Prairie dog PK studies were performed at Centers for Disease Control and Prevention (CDC, Atlanta). […] The animals were collected in Lubbock, TX. All animals are given full physical examination by a veterinarian prior to being shipped to CDC. […] For each blood sample collection, prairie dogs were anesthetized with 5% isoflurane gas and maintained with 1–3% isoflurane during sample collection through peripheral veins. Plasma was prepared and stored at -70 °C until bioanalysis.
# (§2) Sample preparation and bioanalysis was performed at the University of Cincinnati. For extraction, 50 μl of plasma samples were transferred to glass tubes. […] The extraction solvent was separated by centrifugation. […] Collected fractions were evaporated using centrifugal evaporator.
# (§3) Analysis of extracted samples was performed by an LC-MS/MS method. […] The column was Synergi™ 4 μm Polar-RP 50 × 2.00 mm (Phenomenex) run at a flow rate of 400 μl/min with an injection volume of 5 μl (partial loop). […] The analysis was performed using a Thermo Scientific LTQ-FT™ mass spectrometer operated in positive-ion electrospray mode.
# (§4) Pharmacokinetic analysis was performed on either mean plasma concentration-time data (mouse) or on the individual plasma concentration-time data (prairie dog, guinea pig, and monkey) employing Phoenix® WinNonlin 6.4®. PK parameters such as maximum plasma concentration (Cmax), the time corresponding to Cmax (Tmax), terminal half-life (T1/2), the volume of distribution (Vd) and clearance (CL) were calculated by non-compartmental methods and presented as the arithmetic mean ± standard deviation (SD). The bioavailability (F) was estimated by dividing the mean dose-normalized area under the plasma concentration-time curve from time 0 extrapolated to infinity (AUCinf) upon oral dose by the mean dose-normalized AUCinf upon intravenous dose.
# in vivo [2] = experiment: in vivo; remark: listed apart in the source
# Protocol: PK studies in animals were approved by the Institutional Animal Care and Use Committee (IACUC) of the institution performing the study. […] Twenty-four animals were used for each route of administration and both the genders were randomly included (n = 3 mice per time point). The intravenous dose was administered via tail vein injection at an injection volume of 5 ml/kg, and the oral dose was given via gavage at a dose volume of 10 ml/kg. […] Mice were sacrificed with carbon dioxide asphyxiation following bleeds. Plasma was prepared and stored at -80 °C until bioanalysis.
# as §2, §3, §4
# in vivo [3] = experiment: in vivo; remark: listed apart in the source
# Protocol: Six Animals (3.5 kg) were procured from Charles River, three (n = 3) for each route of administration. Animals were fasted overnight before dosing and at least 1 h following dose administration. The intravenous dose was given via a saphenous vein at an injection volume of 1 ml/kg, and oral dosing was performed via gavage at a dose volume of 5 ml/kg. […] Plasma was prepared and stored at-70 °C until bioanalysis.
# as §2, §3, §4
# plasma protein = conditions: nilotinib, all the preclinical species and humans; cited from earlier work
# [4] = nilotinib, cited from earlier work
# [5] = nilotinib; cited from earlier work
# [6] = nilotinib, 7 mg twice-daily, 20 mg once-daily, 20 mg twice-daily for 7 days, prairie dogs
# Protocol: as §1
# in vivo [7] = conditions: male, Hartley, guinea pig, iv, 10 mg/kg
# Protocol: Male Hartley guinea pigs (450–650 g) were procured from Charles River. Nine animals were used, three (n = 3) for each route of administration. The intravenous dose was given via jugular vein cannula, and the oral dose was given via gavage. […] Plasma was prepared and stored at -80 °C until bioanalysis.
# as §2, §3, §4
# [8] = prairie dogs
# Protocol: as §1
# The formulation used in previously reported PK studies have varied based on the animal model. […] For their intravenous PK study in dogs, Solutol® HS 15 was used instead of cremophor [13].
# [9] = male, dog, in vivo, iv, 10 mg/kg
# [10] = male, dog, in vivo, po, 30 mg/kg
# [11] = both, C57BL/6, mouse, in vivo, iv, 10 mg/kg
# [12] = both, C57BL/6, mouse, in vivo, po, 10 mg/kg
# [13] = cynomolgus monkey, in vivo, iv, 10 mg/kg
# [14] = cynomolgus monkey, in vivo, po, 10 mg/kg
# [15] = male, dog, in vivo, po, 10 mg/kg
# [16] = male, dog, in vivo, po, 20 mg/kg
# [17] = nilotinib, IV 10 mg/kg, prairie dogs, mean ± SD
structure (smiles),measurement,setting,value
Cc1ccc(NC(=O)c2ccc(CN3CCN(C)CC3)cc2)cc1Nc1nccc(-c2cccnc2)n1 [imatinib],bioavailability,"in vivo [1]; male, dog, in vivo",~22%
same,AUC(0-inf),in vivo [1]; [9],12600 ng·h/mL
same,AUC(0-inf),in vivo [1]; [10],8090 ± 3010 ng·h/mL
same,Cmax,in vivo [1]; [10],1680 ± 834 ng/mL
same,Tmax,in vivo [1]; [10],3 ± 1.15 h
same,AUC(0-inf),in vivo [2]; [11],4520 ng·h/mL
same,AUC(0-inf),in vivo [2]; [12],4850 ng·h/mL
same,Tmax,in vivo [2]; [12],1 h
same,Cmax,in vivo [2]; [12],1470 ng/mL
Cc1cn(-c2cc(NC(=O)c3ccc(C)c(Nc4nccc(-c5cccnc5)n4)c3)cc(C(F)(F)F)c2)cn1 [nilotinib],AUC(0-inf),in vivo [3]; [13],16100 ng·h/mL
same,MRT,in vivo [3]; [13],8.9 ± 1.1 h
same,Vd,in vivo [3]; [13],5.74 ± 1.78 L/kg
same,clearance,in vivo [3]; [13],10.7 mL/min/kg
same,half-life,"in vivo [3]; cynomolgus monkey, in vivo, iv, 10 mg/kg, T1/2, nilotinib, IV 10 mg/kg, Cynomolgus monkeys, mean ± SD",7.8 h
same,AUC(0-inf),in vivo [3]; [14],2100 ± 468 ng·h/mL
same,Cmax,in vivo [3]; [14],410 ± 46 ng/mL
same,Tmax,in vivo [3]; [14],1.67 ± 0.58 h
same,bioavailability,in vivo [3]; [14],13%
same,half-life,"in vivo [3]; cynomolgus monkey, in vivo, po, 10 mg/kg, Apparent T1/2, nilotinib, oral 10 mg/kg in Avicel/HPMC, Cynomolgus monkeys, mean ± SD",5.2 h
same,T1/2,"in vivo [3]; nilotinib, IV 10 mg/kg, Cynomolgus monkeys, mean ± SD",7.79 ± 0.71 h
same,Apparent T1/2,"in vivo [3]; nilotinib, oral 10 mg/kg in Avicel/HPMC, Cynomolgus monkeys, mean ± SD",5.16 ± 0.52 h
same,Protein binding,plasma protein,greater than 97%
same,Solubility in an acidic environment,[4]; acidic environment,soluble
same,Solubility at pH above 4.5,[4]; pH above 4.5,poorly soluble
same,Water solubility,[4],low
same,bioavailability,"in vivo [1]; male, dog, in vivo, nilotinib, oral 20 mg/kg in NMP/PEG 300 vs IV 10 mg/kg, prairie dogs",~24%
same,AUC(0-inf),in vivo [1]; [9],57600 ng·h/mL
same,MRT,in vivo [1]; [9],6.7 ± 2.9 h
same,Vd,in vivo [1]; [9],1.16 ± 0.326 L/kg
same,clearance,in vivo [1]; [9],3.17 mL/min/kg
same,half-life,"in vivo [1]; male, dog, in vivo, iv, 10 mg/kg, T1/2, nilotinib, IV 10 mg/kg, prairie dogs, mean ± SD",6.5 h
same,AUC(0-inf),in vivo [1]; [15],9330 ± 3630 ng·h/mL
same,Cmax,in vivo [1]; [15],951 ± 255 ng/mL
same,Tmax,in vivo [1]; [15],5.6 ± 2.19 h
same,half-life,"in vivo [1]; male, dog, in vivo, po, 10 mg/kg, Apparent T1/2, nilotinib, oral 10 mg/kg in Avicel/HPMC suspension, prairie dogs, mean ± SD",3.5 ± 0.6 h
same,bioavailability,"in vivo [1]; male, dog, in vivo, po, 10 mg/kg, nilotinib, oral 10 mg/kg in Avicel/HPMC suspension vs IV 10 mg/kg, prairie dogs",16%
same,AUC(0-inf),in vivo [1]; [16],28000 ng·h/mL
same,Cmax,in vivo [1]; [16],1670 ± 315 ng/mL
same,Tmax,in vivo [1]; [16],7.2 ± 1.79 h
same,half-life,"in vivo [1]; male, dog, in vivo, po, 20 mg/kg, Apparent T1/2, nilotinib, oral 20 mg/kg in NMP/PEG 300, prairie dogs, mean ± SD",7.5 h
same,bioavailability,"in vivo [1]; male, dog, in vivo, po, 20 mg/kg, nilotinib, oral 20 mg/kg in NMP/PEG 300 vs IV 10 mg/kg, prairie dogs",24%
same,AUC(0-inf),in vivo [1]; [17],"57,551 ± 15,508 ng.hr./ml"
same,CL,in vivo [1]; [17],3.17 ± 1.28 mL/min/kg
same,T1/2,"in vivo [1]; nilotinib, IV 10 mg/kg, prairie dogs, mean ± SD, 10 mg/kg",6.51 ± 2.97 h
same,Apparent T1/2,"in vivo [1]; nilotinib, oral 20 mg/kg in NMP/PEG 300, prairie dogs, mean ± SD, 20 mg/kg",7.57 ± 2.01 h
same,Biopharmaceutics Classification System class,[5],class II/IV
same,Permeability,[5],poor to moderate
same,Deviation of predicted peak and trough levels on Days 1 and 7 from reported levels,[6],≤ 25%
same,Vd,in vivo [7],37.6 L/kg
same,clearance,in vivo [7],198 mL/min/kg
same,half-life,in vivo [7],2.1 h
same,Tolerability in multi-dose studies,"[8]; nilotinib/NMP (20 mg/ml) in PEG 300 (1:10), oral, weight loss, severe diarrhea, elevated liver enzymes also in vehicle-treated animals, data not shown",not tolerated
same,Tolerability in multiple dose PK studies,[8]; oral suspension of Avicel-RC 591 and HPMC,tolerable
same,AUC(0-inf),in vivo [2]; [11],76300 ng·h/mL
same,MRT,in vivo [2]; [11],2.21 h
same,Vd,in vivo [2]; [11],0.29 L/kg
same,clearance,in vivo [2]; [11],2.19 mL/min/kg
same,half-life,in vivo [2]; [11],1.81 h
same,AUC(0-inf),in vivo [2]; [12],38400 ng·h/mL
same,Tmax,in vivo [2]; [12],0.5 h
same,half-life,in vivo [2]; [12],2.94 h
same,bioavailability,"in vivo [2]; both, C57BL/6, mouse, in vivo, po, 10 mg/kg, Bioavailability, nilotinib, oral 10 mg/kg in NMP/PEG 300 vs IV 10 mg/kg, C57BL/6 mice",50%
same,Cmax,"in vivo [2]; both, C57BL/6, mouse, in vivo, po, 10 mg/kg, nilotinib, oral 10 mg/kg in NMP/PEG 300, C57BL/6 mice",18000 ng/mL
same,Cmax,"in vivo [2]; both, C57BL/6, mouse, in vivo, po, 10 mg/kg, nilotinib, oral 10 mg/kg, C57BL/6 mice",~18000 ng/mL
same,Time to Cmax after dosing,"in vivo [2]; nilotinib, oral 10 mg/kg, C57BL/6 mice",30 min
